Tests used:
[1] = system: Hamster Tracheal Organ Culture; assay: Reversal of keratinization in hamster tracheal organ culture; type: cell-based
Protocol: (§1) The ODC assay measures a compound's ability to prevent the induction of ODC. The tracheal organ culture assay measures a compound's ability to reverse keratinization.
The tracheal organ culture assay is carried out as follows. Tracheas are taken from hamsters that are in very early stages of vitamin A deficiency and placed in organ culture. At the time of culture, the animals are still gaining weight; the tracheal epithelium is generally low columnar or cuboidal, with only occasional patches of squamous metaplasia. Each trachea is opened from the larynx to the carina along the membranous dorsal wall and cultured in a serum-free medium (CMRL-1066; with crystalline bovine insulin, 0.1 μg/ml; hydrocortisone hemisuccinate, 0.1 μg/ml; glutamine, 2 mM; penicillin, 100 units/ml; and streptomycin,100 μg/ml, added). Cultures are gassed with 50% oxygen, 45% nitrogen, and 5% CO2. The culture dishes are rocked at 35.5-36.0 degrees to allow the tracheas contact with both gas and medium. All tracheas are grown in medium containing no retinoid for the first 3 days. At the end of 3 days, some tracheas are harvested; almost all of these tracheas have significant squamous metaplasia, and approximately 60% have keratinized lesions. The remaining tracheas are then divided into different groups which are treated with either: (1) retinoid dissolved in dimethylsulfoxide (final concentration of DMSO in culture medium is never greater than 0.1%) or (2) an equivalent amount of DMSO alone. Culture medium is changed three times a week, and all of the remaining tracheas are harvested at the end of 10 days in culture. Tracheas are fixed in 10% buffered formalin and embedded in paraffin. Cross sections of five micrometers are made through the mid-portion, stained with hematoxylin and eosin, and then scored with a microscope for the presence of keratin and keratohyaline granules, both of which are found in approximately 90% of control cultures that received no retinoid for the entire 10 day culture period.

Ornithine Decarboxylase = assay: Ornithine decarboxylase (ODC) assay: inhibition of TPA-induced ODC induction in mouse skin; type: in vivo, mouse (female Charles River CD-1); conditions: topical, 1 hour before TPA (17 nmol)
Protocol: as §1
The ODC assay is carried out as follows. Female Charles River CD-1 mice from Charles River Breeding Laboratories, Wilmington, Mass., are used (age 7 to 9 weeks). The dorsal hair of the mice is shaved 1 to 2 days before testing, and only mice showing no hair regrowth are used. A single dose of 12-O-tetradecanoylphorbol-13-acetate (TPA) (10.5 μg, 17 nmol) in 0.2 mL of acetone is applied topically to the back of each mouse. The test compound, at one of three dose levels (1.7, 17 and 170 nmol), dissolved in 0.2 mL of acetone is applied 1 hour before the TPA treatment to the test groups; the control group is treated with acetone alone. The mice are killed by cervical dislocation five hours after TPA treatment. Determinations are done in triplicate.
The epidermis is obtained from the sacrificed animals. To obtain sufficient material, the dorsal skins from 2 to 3 mice in each treatment group are pooled. The depilatory agent Nudit® (Helena Rubinstein, New York) is applied to the shaved area of the skin; after 5 minutes, it is washed off thoroughly with cold tap water. Then the skin is excised and plunged immediately into ice-cold water; it is then placed in a 55° C. water bath for 30 seconds and reimmersed in ice-cold water for at lease another 30 seconds. The skin is placed epidermis side up on a cold plate, and the epidermis is scraped off with a razor blade. The pooled epidermal sheets are homogenized (Polytron PT-10 homogenizer) at 0° to 4° C. for 15-20 seconds in 50 mM sodium phosphate and 0.1 mM ethylenediaminetetraacetic acid (EDTA), at a volume of 1 mL/skin.
The supernatant fraction remaining after centrifugation of the homogenate at 10,000×g for 30 seconds at 0° C. is used for the enzyme assay. Enzyme activity is determined using the microassay for ODC as described by Verma and Boutwell to measure the release of ^14 CO2 from DL-[1-^14 C]-ornithine (58 mCi/mmol) after incubation with the 10,000×g supernatant. The incubations are carried out by decanting, with a Pasteur pipette, 100 μL of the supernatant containing 100 to 120 μg of protein into two or three 15-mL Corex tubes in a shaking water bath at 37° C. The assay mixture in the tubes consists of 50 μL of 100 mM sodium phosphate buffer (pH 7.2), 10 μL of 4 mM pyridoxal phosphate, 40 μL of 25 mM dithiothreitol, and 1 μL of 0.1 M EDTA. The center wells in the tubes are filled with 200 μL of a 2:1 solution (v/v) of ethanolamine:2-methoxyethanol. The reaction is started by adding 50 μL of substrate (0.5 μCi of DL-[1-^14 C]-ornithine in 2 mM cold ornithine) at 1-minute intervals by injection to each of the stoppered tubes. Incubations are routinely carried out at 37° C. for 30 to 60 minutes. The reaction is stopped by addition of 0.5 ml of 2 M citric acid, and incubation is continued for an additional hour without heating to ensure complete absorption of ^14 CO2.
Radioactivity is measured using a toluene-based scintillant (4 g of PPO and 50 mg of POPOP/L of toluene) in a Beckman LS-250 liquid scintillation counter. Enzyme activity is determined in triplicate and expressed as nanomoles of CO2 released in 30 minutes per milligram of protein. Enzyme activity is linear for the protein concentration used. The protein concentrations of the epidermal extracts are determined by the Lowry procedure, using bovine serum albumin as the standard.

Compound	Reversal of Keratinization, Active/Total Cultures ([1]; Conc 10^-8 M)	Reversal of Keratinization, Active/Total Cultures (%) ([1]; Conc 10^-8 M)	Reversal of Keratinization, Active/Total Cultures ([1]; Conc 10^-9 M)	Reversal of Keratinization, Active/Total Cultures (%) ([1]; Conc 10^-9 M)	Reversal of Keratinization, Active/Total Cultures ([1]; Conc 10^-10 M)	Reversal of Keratinization, Active/Total Cultures (%) ([1]; Conc 10^-10 M)	Inhibition of Induction of Ornithine Decarboxylase by 12-O-Tetradecanoylphorbol-13-acetate in Mouse Skin, % Inhibition of Control (Ornithine Decarboxylase; Dose 1.7 nmol) [%]	Inhibition of Induction of Ornithine Decarboxylase by 12-O-Tetradecanoylphorbol-13-acetate in Mouse Skin, % Inhibition of Control (Ornithine Decarboxylase; Dose 17 nmol) [%]
CC1=C(/C=C/c2ccc3cc(C=O)ccc3c2)C(C)(C)CCC1 [Example 1, (E)-6-[2-(2,6,6-trimethyl-1-cyclohexen-1-yl)ethenyl]-2-naphthaldehyde]	15/16	94	7/14	50	4/14	28	0	45
CC1=C(/C=C/c2ccc3cc(C(=O)O)ccc3c2)C(C)(C)CCC1 [Example 3, 6-[2-(2,6,6-trimethyl-1-cyclohexen-1-yl)ethenyl]-2-naphthoicacid]	7/7	100	7/7	100	3/7	43	30	48
CCOC(=O)c1ccc(/C=C(C)/C=C/C2=C(C)CCCC2(C)C)o1 [Example 4, (E)-1-(5-Carbethoxy-2-furanyl)-2-methyl-4-(2,6,6-trimethyl-1-cyclohexen-1-yl)-1,3-butadiene]	2/7	29	2/7	29	2/6	33	9	9
CC1=C(/C=C/C(C)=C/c2ccc(C(=O)O)o2)C(C)(C)CCC1 [Example 5, (E)-1-(5-carboxy-2-furanyl)-2-methyl-4-(2,6,6-trimethyl-1-cyclohexen-1-yl)-1,3-butadiene]	3/6	50	3/7	43	3/7	43	7	5
CCOC(=O)c1ccc(/C=C(C)/C=C/C2=C(C)CCCC2(C)C)s1 [Example 6, (E)-1-(5-Carbethoxythien-2-yl)-2-methyl-4-(2,6,6-trimethyl-1-cyclohexen-1-yl)-1,3-butadiene]	13/13	100	10/14	71	6/14	43	67	77
CC1=C(/C=C/C(C)=C/c2ccc(C(=O)O)s2)C(C)(C)CCC1 [Example 8, (E)-1-(5-carboxythien-2-yl)-2-methyl-4-(2,6,6-trimethyl-1-cyclohexen-1-yl)-1,3-butadiene]	15/15	100	14/15	93	7/15	47	42	67
